Reference: patent US20080058398A1, “Compounds” (priority 2006, published 2008)
Counter-ions that a name gives are not always drawn.

Experiments:
[1] = molecular target: D2 receptors (Homo sapiens, UniProt P14416); assay: affinity for dopamine receptors (D2); assay type: binding
[2] = molecular target: dopamine D3 receptors (Homo sapiens, UniProt P35462); assay: affinity for dopamine receptors (D3); assay type: binding
[3] = molecular target: D3 (Homo sapiens, UniProt P35462); assay: GTPγS scintillation proximity assay (GTPγS-SPA), antagonist format; assay type: biochemical; details: higher than Enantiomer 1
Chain of D3 (P35462 whole entry): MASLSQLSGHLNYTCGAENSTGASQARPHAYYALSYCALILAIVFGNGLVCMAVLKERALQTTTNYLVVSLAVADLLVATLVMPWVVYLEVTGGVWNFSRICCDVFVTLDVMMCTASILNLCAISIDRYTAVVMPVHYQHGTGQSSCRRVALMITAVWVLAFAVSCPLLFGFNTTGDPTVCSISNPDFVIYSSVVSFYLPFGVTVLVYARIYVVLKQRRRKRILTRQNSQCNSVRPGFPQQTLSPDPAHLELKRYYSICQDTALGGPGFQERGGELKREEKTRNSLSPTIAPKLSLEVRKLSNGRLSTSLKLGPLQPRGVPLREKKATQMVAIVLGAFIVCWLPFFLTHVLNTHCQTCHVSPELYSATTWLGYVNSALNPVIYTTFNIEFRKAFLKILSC
Protocol: Functional potency and intrinsic activity of compounds of this invention can be measured by the following GTPγS scintillation proximity assay (GTPγS-SPA). Cells used in the study are Chinese Hamster Ovary (CHO) Cells.
Cell membranes are prepared as follows. Cell pellets are resuspended in 10 volumes of 50 mM HEPES, 1 mM EDTA pH 7.4, using KOH. On the day the following proteases are added to the buffer just prior to giving the homogenisation buffer.
25 ug/mL Bacitracin (Sigma B0125)−1000×stock=25 mg/mL in buffer
The cells are homogenised by 2×15 second bursts in a 1 litre Glass Waring blender in a class two biohazard cabinet. The resulting suspension is spun at 500 g for 20 mins (Beckman T21 centrifuge: 1550 rpm). The supernatant is withdrawn with a 25 mL pipette, aliquotted into pre-chilled centrifuge tubes and spun at 48,000 g to pellet membrane fragments (Beckman T1270: 23,000 rpm for 30 mins). The final 48,000 g pellet is resuspended in Homogenisation Buffer, (4× the volume of the original cell pellet). […] Protein content in the membrane preparations is evaluated with the Bradford protein assay.
The final top concentration of test drug is 3 uM in the assay and 11 points serial dilution curves 1:4 in 100% DMSO are carried out using a Biomek FX. […] Assay plates are counted on a Viewlux, 613/55 filter, for 5 min., between 2-6 hours after the final addition. […]

[4] = solid state accelerated stability (appearance, assay and total impurities by HPLC)
Protocol: The solid state accelerated condition adopted were 40° C./75% RH (Relative Humidity) closed and exposed, and 50° C./amb RH (Ambient Relative Humidity) closed under air atmosphere.
At one month time point the following samples have been analysed for the appearance, assay and total impurities.
Assay and total impurities tests have been performed by HPLC with fast gradient method.

Chain of dopamine D3 receptors (P35462 whole entry): as above
Chain of D2 receptors (P14416 whole entry): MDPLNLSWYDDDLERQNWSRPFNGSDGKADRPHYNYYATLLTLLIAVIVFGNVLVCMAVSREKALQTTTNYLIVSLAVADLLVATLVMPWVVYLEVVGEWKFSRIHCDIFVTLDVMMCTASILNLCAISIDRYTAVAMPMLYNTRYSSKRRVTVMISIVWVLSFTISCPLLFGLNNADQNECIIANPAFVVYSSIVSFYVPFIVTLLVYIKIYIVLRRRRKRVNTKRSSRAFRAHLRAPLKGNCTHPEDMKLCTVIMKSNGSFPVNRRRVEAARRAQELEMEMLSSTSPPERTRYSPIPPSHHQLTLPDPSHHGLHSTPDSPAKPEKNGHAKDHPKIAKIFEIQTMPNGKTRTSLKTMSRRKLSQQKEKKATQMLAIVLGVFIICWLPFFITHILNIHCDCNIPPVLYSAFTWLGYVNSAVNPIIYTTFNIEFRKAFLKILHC

Compound: Cc1ncoc1-c1nnc(SCCCN2C[C@@H]3C[C@]3(c3ccc(C(F)(F)F)cc3F)C2)n1C (single isomer, unassigned) [Enantiomer 2]
- affinity for dopamine D2 receptors [1]: exhibit affinity
- affinity for dopamine D3 receptors [2]: exhibit affinity
- affinity for dopamine D3 versus D2 receptors ([2]; D3 compared with D2): greater affinity for dopamine D3 than for D2 receptors
- fpKi (D3) difference [3]: > 1 log-unit

Compound: Cc1ncoc1-c1nnc(SCCCN2C[C@@H]3C[C@]3(c3ccc(C(F)(F)F)cc3F)C2)n1C.O=C(O)C(O)C(O)C(=O)O [Example 1, (1S,5R)-1-[2-fluoro-4-(trifluoromethyl)phenyl]-3-(3-{[4-methyl-5-(4-methyl-1,3-oxazol-5-yl)-4H-1,2,4-triazol-3-yl]thio}propyl)-3-azabicyclo[3.1.0]hexane (2R,3R) tartrate]
- stability in comparison with the hydrochloride salt [4]: improved stability
- total impurities ([4]; after 1 month, at any stability condition tested): around 0.5 % a/a

Compound: Cc1ncoc1-c1nnc(SCCCN2C[C@@H]3C[C@]3(c3ccc(C(F)(F)F)cc3F)C2)n1C [Preparation 7, (1S,5R)-1-[2-Fluoro-4-(trifluoromethyl)phenyl]-3-(3-{[4-methyl-5-(4-methyl-1,3-oxazol-5-yl)-4H-1,2,4-triazol-3-yl]thio}propyl)-3-azabicyclo[3.1.0]hexane hydrochloride]
- change of total impurities ([4]; at any investigated stability condition): increase of total impurities

Compound: Cc1ncoc1-c1nnc(SCCCN2CC3CC3(c3ccc(C(F)(F)F)cc3F)C2)n1C (centres unmarked) [the tartrate, 1-[2-fluoro-4-(trifluoromethyl)phenyl]-3-(3-{[4-methyl-5-(4-methyl-1,3-oxazol-5-yl)-4H-1,2,4-triazol-3-yl]thio}propyl)-3-azabicyclo[3.1.0]hexane]
- stability in comparison with the hydrochloride salt [4]: improved stability
